pIC50: −log10 of the molar value.
What was measured:
A-375 = experiment: Antitumor activity against human A-375 cells xenografted in mouse assessed as tumor growth inhibition; type: functional
[1] = Inhibition of Xenopus laevis Aurora kinase B
Aurora kinase C = biological target: T1, Aurora kinase C (Homo sapiens, UniProt Q9UQB9); experiment: Inhibition of human Aurora C
T1 sequence (Q9UQB9 whole entry): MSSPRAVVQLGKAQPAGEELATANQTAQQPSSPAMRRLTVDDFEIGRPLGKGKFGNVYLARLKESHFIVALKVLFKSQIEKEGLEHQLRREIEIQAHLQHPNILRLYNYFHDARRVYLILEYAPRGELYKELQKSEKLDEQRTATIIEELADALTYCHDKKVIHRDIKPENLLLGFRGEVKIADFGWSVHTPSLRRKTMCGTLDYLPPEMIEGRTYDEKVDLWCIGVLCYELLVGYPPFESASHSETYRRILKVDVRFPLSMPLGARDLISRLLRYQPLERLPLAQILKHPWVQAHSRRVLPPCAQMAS

[2] = Antitumor activity against human Fuji cells xenografted in mouse assessed as reduction in tumor volume; type: functional; design: scale not given: the % may be the effect or the level left
[3] = Antitumor activity against human Fuji cells xenografted in mouse assessed as reduction in tumor weight; type: functional; design: scale not given: the % may be the effect or the level left

**Q.** With `Nc1nc(Nc2ccc(S(N)(=O)=O)cc2)nn1C(=O)c1c(F)cccc1F` [JNJ-7706621] as the molecule, how does the TGI (A-375) read?
**A.** Its TGI is 95%.

**Q.** With `CCNC(=O)C#Cc1ccc2c(c1)NC(=O)/C2=C(\Nc1ccc(CN(C)C)cc1)c1ccccc1` as the molecule, how does the pIC50 [1] read?
**A.** The pIC50 was 8.52.

**Q.** And the pIC50 (Aurora kinase C)?
**A.** The pIC50 was 7.82.

**Q.** With `CN(C)S(=O)(=O)c1ccc2c(c1)/C(=C/c1cc3c([nH]1)CCCC3)C(=O)N2` as the molecule, how does the Activity [2] read?
**A.** The Activity was 16%.

**Q.** And the Activity [3]?
**A.** The Activity was 13%.
